According to patent US20170027172A1, “USE OF SUBSTITUTE OXO TETRAHYDROQUINOLINE SULFONAMIDES OR SALTS THEREOF FOR RAISING STRESS TOLERANCE OF PLANTS” (BAYER CROPSCIENCE AKTIENGESELLSCHAFT, priority 2014, published 2017):

Legend:
[1] = tested on: Triticum aestivum; test: Drought stress test on wheat Part D, reduction in damage intensity from fresh weights; format: in vivo; settings: efficacy = reduction in damage intensity (fresh weight) under drought stress, at least three repeats
Excerpt: Wheat grains were sown in a standardized number in sandy loam soil plastic pots, covered with soil or sand and grown in a greenhouse under good growth conditions. Pots with uneven degrees of emergence were excluded prior to the start of the trial. The treatment with test substances was effected at the early leaf stage (BBCH10-BBCH13). To assure uniform water supply, the potted plants were supplied with water by dam irrigation prior to substance application. The inventive compounds were first formulated as wettable powders (WP) or dissolved in a solvent mixture. The further dilution was effected with water supplemented with 0.2% wetting agent (e.g. agrotin). The finished spray liquor was sprayed onto the green parts of the plant at an equivalent water application rate of 600 l/ha. Substance application was followed immediately by stress treatment of the plants. Drought stress was induced by gradual drying out under the following conditions: “Day”: 14 hours with illumination at 26-30° C. “Night”: 10 hours without illumination at 18-20° C. The duration of the respective stress phases was guided mainly by the condition of the stressed control plants. It was ended (by re-irrigating and transfer to a greenhouse with good growth conditions) as soon as irreversible damage was observed on the stressed control plants. The end of the stress phase was followed by an about 7-day recovery phase, during which the plants were once again kept under good growth conditions in a greenhouse. The exact duration of the recovery phase was variable for reasons related to the trial. At the end of the recovery phase, the fresh weights of the plant parts above ground were determined. By comparison with unstressed control plants which were kept under good growth conditions over the entire duration of the trial, percentage damage intensities were first calculated from the fresh weight values. The reduction in damage intensity resulting from treatment with test substance was then calculated by the following formula: [formula] EF: Efficacy DIs: Damage intensity of the stressed control plants DIt: Damage intensity of the stressed plants treated with test compound The values reported in table D-1 below are results from at least three repeats. BRSNS=Brassica napus TRZAS=Triticum aestivum

[2] = molecular target: T1, phosphatase ABI1 via the co-regulator RCAR11/PYR1 (Arabidopsis thaliana, UniProt O49686+P49597); test: In vitro inhibition of the phosphatase ABI1 via the co-regulator RCAR11/PYR1, MUP dephosphorylation; format: biochemical; design: dose or concentration left out as unconfirmed; settings: in a solution of DMSO and water; fluorescence at 460 nm
T1 sequence (O49686 1-191): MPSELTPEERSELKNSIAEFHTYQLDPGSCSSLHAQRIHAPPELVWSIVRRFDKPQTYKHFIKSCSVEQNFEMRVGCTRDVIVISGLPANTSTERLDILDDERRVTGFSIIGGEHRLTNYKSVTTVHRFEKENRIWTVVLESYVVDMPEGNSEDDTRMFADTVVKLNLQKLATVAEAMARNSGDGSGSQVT
T1 sequence (P49597 1-434): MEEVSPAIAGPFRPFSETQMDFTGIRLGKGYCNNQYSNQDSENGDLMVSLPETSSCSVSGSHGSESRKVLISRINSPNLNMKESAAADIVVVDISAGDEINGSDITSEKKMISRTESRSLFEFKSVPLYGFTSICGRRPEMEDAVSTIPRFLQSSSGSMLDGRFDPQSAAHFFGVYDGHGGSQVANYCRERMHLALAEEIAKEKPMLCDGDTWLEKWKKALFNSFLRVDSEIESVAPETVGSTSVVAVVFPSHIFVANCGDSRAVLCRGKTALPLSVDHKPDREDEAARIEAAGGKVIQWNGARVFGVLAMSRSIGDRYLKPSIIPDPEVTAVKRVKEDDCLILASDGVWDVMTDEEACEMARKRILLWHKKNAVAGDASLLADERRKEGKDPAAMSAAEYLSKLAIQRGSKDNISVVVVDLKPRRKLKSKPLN
Excerpt: Effects of the phytohormone abscisic acid (ABA) on the behavior of plants under abiotic stress and the mechanism of action of ABA are described in the literature (cf. Abrams et al., WO97/23441, Park et al. Science, 2009, 324, 1068; Grill et al. Science, 2009, 324, 1064; Tanokura et al. Biophysics, 2011, 7, 123; Schroeder et al. Plant J. 2010, 61, 290). Therefore, it is possible with the aid of a suitable in vitro test system to derive a correlation between the action of ABA and the stress response of a plant under abiotic stress. In the event of water deficiency (drought stress), plants form the phytohormone abscisic acid (ABA). This binds, along with a co-regulator (Regulatory Component of ABA-Receptor=RCAR according to Grill et al. Science, 2009, 324, 1064 or PYR/PYL according to Cutler et al. Science, 2009, 324, 1068), to a phosphatase (e.g. ABI1, a type 2C protein phosphatase, also abbreviated to PP2C) and inhibits its activity. As a result, a “downstream” kinase (e.g. SnRK2) is no longer dephosphorylated. This kinase, which is thus active, via phosphorylation of transcription factors (e.g. AREB/ABF, cf. Yoshida et al., 2010, 61, 672), switches on a genetic protection program to increase drought stress tolerance. The assay described hereinafter utilizes the inhibition of the phosphatase ABI1 via the co-regulator RCAR11/PYR1 aus Arabidopsis thaliana. For the determination of activity, the dephosphorylation of 4-methylumbelliferyl phosphate (MUP) was measured at 460 nm. The in vitro assay was conducted in Greiner 384-well PS microplates F-well, using two controls: a) 0.5% dimethyl sulfoxide (DMSO) and b) 5 μM abscisic acid (ABA). The assay described here was generally conducted with substance concentrations of the appropriate chemical test substances in a concentration range of 0.1 μM to 100 μM in a solution of DMSO and water. The substance solution thus obtained, if necessary, was stirred with esterase from porcine liver (EC 3.1.1.1) at room temperature for 3 h and centrifuged at 4000 rpm for 30 min. A total volume of 45 μl was introduced into each cavity of the microplate, having the following composition: • 1) 5 μl of substance solution, i.e. a) DMSO 5% or b) abscisic acid solution or c) the corresponding example compound of the general formula (I) dissolved in 5% DMSO. • 2) 20 μl of enzyme buffer mix, composed of a) 40% by vol. of enzyme buffer (10 mL contain equal proportions by volume of 500 mM Tris-HCl pH 8, 500 mM NaCl, 3.33 mM MnCl2, 40 mM dithiothreitol (DTT)), b) 4% by vol. of ABI1 dilution (protein stock solution was diluted so as to give, after addition, a final concentration in the assay of 0.15 μg ABI1/well), c) 4% by vol. of RCAR11 dilution (enzyme stock was diluted so as to give, on addition of the dilution to the enzyme buffer mix, a final concentration in the assay of 0.30 μg enzyme/well), d) 5% by vol. of Tween20 (1%), e) 47% by vol. H2O bi-dist. • 3) 20 μl of substrate mix, composed of a) 10% by vol. of 500 mM Tris-HCl pH8, b) 10% by vol. of 500 mM NaCl, c) 10% by vol. of 3.33 mM MnCl2, d) 5% by vol. of 25 mM MUP, 5% by vol. of Tween20 (1%), 60% by vol. of H2O bi-dist.
Enzyme buffer mix and substrate mix were made up 5 minutes prior to the addition and warmed to a temperature of 35° C. On completion of pipetting of all the solutions and on completion of mixing, the plate was incubated at 35° C. for 20 minutes. Finally, a relative fluorescence measurement was made at 35° C. with a BMG Labtech “POLARstar Optima” microplate reader using a 340/10 nm excitation filter and a 460 nm emission filter. The efficacy of the compounds of the general formula (I) is reported in the table which follows using abscisic acid […] as comparative substance (No. 37) according to the following classification: ++++ (inhibition≧90%), +++ (90%>inhibition≧70%), ++ (70%>inhibition≧50%), + (50%>inhibition≧30%). […]

[3] = tested on: Triticum aestivum; test: Drought stress greenhouse test Part C, visual scoring vs stressed control plants; format: in vivo; settings: spray application 250 g/ha, efficacy range of 3-4 pots
Experimental: Seeds of monocotyledonous and dicotyledonous crop plants were sown in sandy loam in plastic or wood-fiber pots, covered with soil or sand and cultivated in a greenhouse under good growth conditions. The trial plants were treated at the early leaf stage (BBCH10-BBCH13). To assure uniform water supply before commencement of stress, the potted plants were supplied with water by dam irrigation prior to substance application. The inventive compounds were first formulated as wettable powders (WP) or dissolved in a solvent mixture. The further dilution was effected with water supplemented with 0.2% wetting agent (e.g. agrotin). The finished spray liquor was sprayed onto the green parts of the plant at an equivalent water application rate of 600 l/ha. Substance application was followed immediately by stress treatment of the plants. For this purpose, the wood-fiber pots were transferred in plastic inserts in order to prevent them from subsequently drying out too quickly. Drought stress was induced by gradual drying out under the following conditions: “Day”: 14 hours with illumination at 26-30° C. “Night”: 10 hours without illumination at 18-20° C. The duration of the respective stress phases was guided mainly by the condition of the stressed control plants. It was ended (by re-irrigating and transfer to a greenhouse with good growth conditions) as soon as irreversible damage was observed on the stressed control plants. The end of the stress phase was followed by an about 4-7-day recovery phase, during which the plants were once again kept under good growth conditions in a greenhouse. The duration of the recovery phase was guided mainly by when the trial plants had attained a state which enabled visual scoring of potential effects, and was therefore variable. Once this juncture had been reached, the appearance of the plants treated with test substances was recorded in comparison to the stressed control plants by the following categories: [table] For each substance and dosage, 3-4 pots were treated and evaluated. […] BRSNS=Brassica napus TRZAS=Triticum aestivum

ABI1 inhibition [2] | Structure (SMILES) | EF [%] (TRZAS) ([1]; 250 g/ha) | also measured
 | CCOC(=O)CCN1C(=O)CC(C)(C)c2cc(NS(=O)(=O)Cc3ccc(F)cc3)ccc21 [B52-158] |  | EF [%] (TRZAS) ([1]; 25 g/ha): 10%
 | COC(=O)CN1C(=O)CC(C)(C)c2cc(NS(=O)(=O)Cc3ccc(F)cc3)ccc21 [B50-158] | 18 | 
++ (70%>inhibition≧50%) | COC(=O)CCN1C(=O)CCc2cc(NS(=O)(=O)Cc3cccc(C)c3)ccc21 [A51-153] | 16 | 
 | CCC1(C)CC(=O)N(CC2CC2)c2ccc(NS(=O)(=O)Cc3cccc(Cl)c3)cc21 (stereo not shown) [F3-166] |  | Effect (TRZAS) [3]: 10-20
++++ (inhibition≧90%) | COC(=O)CCN1C(=O)CCc2cc(NS(=O)(=O)Cc3ccc(Cl)cc3)ccc21 [A51-165] |  | EF [%] (TRZAS) ([1]; 25 g/ha): 18%
 | COC(=O)CN1C(=O)CC(C)(C)c2cc(NS(=O)(=O)Cc3cccc(C(F)(F)F)c3)ccc21 [B50-179] | 15 | 
 | COC(=O)CN1C(=O)CC(C)(C)c2cc(NS(=O)(=O)Cc3ccc(C(F)(F)F)cc3)ccc21 [B50-178] | 20 | 
 | CCOC(=O)CCN1C(=O)CC(C)(C)c2cc(NS(=O)(=O)Cc3cccc(Cl)c3)ccc21 [B52-166] | 14 | 
 | CCOC(=O)CCN1C(=O)CC(C)(C)c2cc(NS(=O)(=O)Cc3ccc(Br)cc3)ccc21 [B52-172] | 14 | 
++ (70%>inhibition≧50%) | COC(=O)CCN1C(=O)CCc2cc(NS(=O)(=O)Cc3cccc(Cl)c3)ccc21 [A51-166] | 20 | 
++++ (inhibition≧90%) | COC(=O)CCN1C(=O)CCc2cc(NS(=O)(=O)Cc3ccc(C#N)cc3)ccc21 [A51-181] | 15 | 
++ (70%>inhibition≧50%) | COC(=O)CN1C(=O)CCc2cc(NS(=O)(=O)Cc3ccccc3[N+](=O)[O-])ccc21 [A50-177] | 19 | 
 | COC(=O)CCN1C(=O)CC(C)(C)c2cc(NS(=O)(=O)Cc3cccc(Br)c3)ccc21 [B51-173] |  | EF [%] (TRZAS) ([1]; 25 g/ha): 16%
 | COC(=O)CN1C(=O)CC(C)(C)c2cc(NS(=O)(=O)Cc3ccc([N+](=O)[O-])cc3)ccc21 [B50-175] |  | EF [%] (TRZAS) ([1]; 25 g/ha): 12%
 | COC(=O)CCN1C(=O)CC(C)(C)c2cc(NS(=O)(=O)Cc3ccc(F)cc3)ccc21 [B51-158] |  | EF [%] (TRZAS) ([1]; 25 g/ha): 13%
 | CCOC(=O)CCN1C(=O)CC(C)(C)c2cc(NS(=O)(=O)Cc3ccc([N+](=O)[O-])cc3)ccc21 [B52-175] | 10 | 
++ (70%>inhibition≧50%) | N#CCCCN1C(=O)CCc2cc(NS(=O)(=O)Cc3cccc(Cl)c3)ccc21 [A48-166] | 13 | 
 | CCOC(=O)CCN1C(=O)CC(C)(C)c2cc(NS(=O)(=O)Cc3cccc(Br)c3)ccc21 [B52-173] |  | EF [%] (TRZAS) ([1]; 25 g/ha): 14%
 | COC(=O)CN1C(=O)CC(C)(C)c2cc(NS(=O)(=O)Cc3ccccc3Cl)ccc21 [B50-168] | 14 | 
++++ (inhibition≧90%) | CCc1ccc(S(=O)(=O)Nc2ccc3c(c2)CCC(=O)N3CC2CCC2)cc1 [A21-601] |  | 
++++ (inhibition≧90%) | COCN1C(=O)CCc2cc(NS(=O)(=O)Cc3ccc(Cl)cc3)ccc21 [A49-165] |  | 
++++ (inhibition≧90%) | COC(=O)CCN1C(=O)CCc2cc(NS(=O)(=O)Cc3ccc(C(F)(F)F)cc3)ccc21 [A51-178] |  | EF [%] (TRZAS) ([1]; 25 g/ha): 10%
++ (70%>inhibition≧50%) | Cc1ccc(CS(=O)(=O)Nc2ccc3c(c2)CCC(=O)N3CC2CC2(Cl)Cl)cc1 (stereo not shown) [A32-152] |  | 
+++ (90%>inhibition≧70%) | COC(=O)CCN1C(=O)CCc2cc(NS(=O)(=O)Cc3ccccc3F)ccc21 [A51-161] |  | 
